Test results taken from ChEMBL document CHEMBL4049404, “Discovery of (R)-1-(3-(4-Amino-3-(3-chloro-4-(pyridin-2-ylmethoxy)phenyl)-1H-pyrazolo[3,4-d]pyrimidin-1-yl)piperidin-1-yl)prop-2-en-1-one (CHMFL-EGFR-202) as a Novel Irreversible EGFR Mutant Kinase Inhibitor with a Distinct Binding Mode” (J Med Chem, 2017).

Columns and labels:
[1] = molecular target: Cytoplasmic tyrosine-protein kinase BMX (Homo sapiens, UniProt P51813); assay: Inhibition of full-length recombinant human His-tagged BMX expressed in baculovirus by Z'-LYTE assay
[2] = molecular target: T1, Epidermal growth factor receptor (Homo sapiens, UniProt P00533); assay: Inhibition of wild-type EGFR in human NCI-H2122 cells assessed as reduction in STAT3 phosphorylation at Y705 site at 0.01 to 3 uM by Western blot analysis; format: cell-based
Rattus norvegicus [3] = assay: AUC (0 to infinity) in Sprague-Dawley rat plasma at 1 mg/kg, iv after 8 hrs; format: ADME, organism-based; set-up: dose 1 mg/kg, route intravenous, time infinity; details: in vivo
[4] = molecular target: T2, Dual specificity mitogen-activated protein kinase kinase 1 (Homo sapiens, UniProt Q02750); assay: Binding affinity to full-length human MEK1 expressed in mammalian system assessed as control score at 1 uM by KINOMEScan assay
Rattus norvegicus [5] = assay: AUC (0 to t) in Sprague-Dawley rat plasma at 1 mg/kg, iv after 8 hrs; format: ADME, organism-based; set-up: time < 8 hr, dose 1 mg/kg, route intravenous; details: in vivo
[6] = molecular target: T1, Epidermal growth factor receptor; assay: Inhibition of wild type EGFR autophosphorylation at Y1068 in human NCI-H2122 cells at 0.01 to 3 uM after 4 hrs by Western blot analysis; format: cell-based
[7] = molecular target: T1, Epidermal growth factor receptor; assay: Inhibition of wild-type EGFR in human A549 cells assessed as reduction in eIF4E phosphorylation at Ser209 site at 0.01 to 3 uM by Western blot analysis; format: cell-based; details: a549, 3 µM
[8] = molecular target: T1, Epidermal growth factor receptor; assay: Inhibition of wild-type EGFR in human A549 cells assessed as reduction in P70S6K phosphorylation at Thr389 site at 0.01 to 3 uM by Western blot analysis; format: cell-based; details: a549, 3 µM
[9] = molecular target: T3, Tyrosine-protein kinase Blk (Homo sapiens, UniProt P51451); assay: Inhibition of full-length recombinant human His-tagged BLK expressed in baculovirus by Z'-LYTE assay
[10] = molecular target: T1, Epidermal growth factor receptor; assay: Inhibition of wild-type EGFR in human NCI-H2122 cells assessed as reduction in Akt phosphorylation at 473 site at 0.01 to 3 uM by Western blot analysis; format: cell-based
[11] = molecular target: Epidermal growth factor receptor (Homo sapiens, UniProt P00533, EX19DEL); assay: Inhibition of EGFR exon 19 deletion mutant in human PC9 cells assessed as reduction in ERK phosphorylation at Thr202/Tyr204 measured after 4 hrs by Western blot analysis; format: cell-based
[12] = molecular target: T2, Dual specificity mitogen-activated protein kinase kinase 1; assay: Inhibition of full-length recombinant human His-tagged MEK1 expressed in baculovirus by Z'-LYTE assay
[13] = molecular target: Receptor tyrosine-protein kinase erbB-2 (Homo sapiens, UniProt P04626); assay: Inhibition of recombinant human […] ERBB2 cytoplasmic domain (676 to 1255 residues) expressed in baculovirus by Z'-LYTE assay
[14] = molecular target: T1, Epidermal growth factor receptor; assay: Inhibition of wild type EGFR autophosphorylation at Y1068 in human A549 cells at 0.01 to 3 uM after 4 hrs by Western blot analysis; format: cell-based; details: a549, 4 h
[15] = molecular target: T1, Epidermal growth factor receptor; assay: Inhibition of wild-type EGFR in human A549 cells assessed as reduction in Akt phosphorylation at 308 site at 0.01 to 3 uM by Western blot analysis; format: cell-based; details: a549, 3 µM
[16] = molecular target: T1, Epidermal growth factor receptor; assay: Inhibition of recombinant human GST-tagged EGFR cytoplasmic domain expressed in baculovirus by Z'-LYTE assay
[17] = molecular target: Insulin receptor (Homo sapiens) (UniProt P06213); assay: Inhibition of Tel-fused INSR (unknown origin) expressed in mouse BAF3 cells assessed as growth inhibition after 72 hrs by CellTiter-Glo assay; format: cell-based
[18] = molecular target: Dual specificity mitogen-activated protein kinase kinase 5 (Homo sapiens) (UniProt Q13163); assay: Binding affinity to wild-type human MEK5 expressed in mammalian system assessed as control score at 1 uM by KINOMEScan assay
[19] = molecular target: T1, Epidermal growth factor receptor; assay: Inhibition of Tel-fused EGFR (unknown origin) expressed in mouse BAF3 cells assessed as growth inhibition after 72 hrs by CellTiter-Glo assay; format: cell-based
[20] = molecular target: Cytoplasmic tyrosine-protein kinase BMX (Homo sapiens) (UniProt P51813); assay: Binding affinity to wild-type human BMX expressed in bacterial system assessed as control score at 1 uM by KINOMEScan assay
[21] = molecular target: T1, Epidermal growth factor receptor; assay: Inhibition of wild-type EGFR in human A549 cells assessed as reduction in STAT3 phosphorylation at Y705 site at 0.01 to 3 uM by Western blot analysis; format: cell-based; details: a549, 3 µM
Rattus norvegicus [22] = assay: AUC (0 to infinity) in Sprague-Dawley rat plasma at 10 mg/kg, po after 24 hrs; format: ADME, organism-based; set-up: dose 10 mg/kg, time infinity, route oral; details: in vivo
[23] = molecular target: T4, Epidermal growth factor receptor (Homo sapiens, UniProt P00533, L858R/T790M); assay: Inhibition of EGFR T790M/L858R mutant (unknown origin) autophosphorylation at Y1068 expressed in mouse BAF3 cells after 4 hrs by Western blot analysis; format: cell-based
[24] = molecular target: Serine/threonine-protein kinase 10 (Homo sapiens) (UniProt O94804); assay: Binding affinity to wild-type human LOK expressed in bacterial system assessed as control score at 1 uM by KINOMEScan assay
[25] = Tmax in Sprague-Dawley rat plasma at 10 mg/kg, po after 24 hrs; format: ADME, organism-based
[26] = molecular target: T1, Epidermal growth factor receptor; assay: Inhibition of wild-type EGFR in human NCI-H2122 cells assessed as reduction in P70S6K phosphorylation at Thr389 site at 0.01 to 3 uM by Western blot analysis; format: cell-based
[27] = Oral bioavailability in Sprague-Dawley rat at 10 mg/kg after 24 hrs; format: ADME, organism-based; details: in vivo
[28] = Half life in Sprague-Dawley rat plasma at 10 mg/kg, po after 24 hrs; format: ADME, organism-based
[29] = molecular target: T1, Epidermal growth factor receptor; assay: Inhibition of wild-type EGFR in human NCI-H2122 cells assessed as reduction in Akt phosphorylation at 308 site at 0.01 to 3 uM by Western blot analysis; format: cell-based
[30] = molecular target: Epidermal growth factor receptor (Homo sapiens, UniProt P00533, L858R); assay: Inhibition of EGFR L858R mutant expressed in human H3255 cells assessed as reduction in ERK phosphorylation at Thr202/Tyr204 measured after 4 hrs by Western blot analysis; format: cell-based
[31] = molecular target: T4, Epidermal growth factor receptor; assay: Inhibition of EGFR L858R/T790M mutant in human NCI-H1975 cells assessed as reduction in ERK phosphorylation at Thr202/Tyr204 measured after 4 hrs by Western blot analysis; format: cell-based
[32] = molecular target: T1, Epidermal growth factor receptor; assay: Inhibition of wild-type EGFR in human NCI-H2122 cells assessed as growth inhibition after 72 hrs by CellTiter-Glo assay; format: cell-based
[33] = molecular target: Tyrosine-protein kinase BTK (Homo sapiens, UniProt Q06187); assay: Inhibition of full-length recombinant human His-tagged BTK cytoplasmic domain expressed in baculovirus by Z'-LYTE assay
[34] = molecular target: T3, Tyrosine-protein kinase Blk; assay: Binding affinity to wild-type human BLK expressed in bacterial system assessed as control score at 1 uM by KINOMEScan assay
[35] = molecular target: Insulin-like growth factor 1 receptor (Homo sapiens) (UniProt P08069); assay: Inhibition of Tel-fused IGF1R (unknown origin) expressed in mouse BAF3 cells assessed as growth inhibition after 72 hrs by CellTiter-Glo assay; format: cell-based
[36] = Apparent plasma clearance in Sprague-Dawley rat after 24 hrs at 10 mg/kg, po; format: ADME, organism-based

T1 sequence (P00533 whole entry): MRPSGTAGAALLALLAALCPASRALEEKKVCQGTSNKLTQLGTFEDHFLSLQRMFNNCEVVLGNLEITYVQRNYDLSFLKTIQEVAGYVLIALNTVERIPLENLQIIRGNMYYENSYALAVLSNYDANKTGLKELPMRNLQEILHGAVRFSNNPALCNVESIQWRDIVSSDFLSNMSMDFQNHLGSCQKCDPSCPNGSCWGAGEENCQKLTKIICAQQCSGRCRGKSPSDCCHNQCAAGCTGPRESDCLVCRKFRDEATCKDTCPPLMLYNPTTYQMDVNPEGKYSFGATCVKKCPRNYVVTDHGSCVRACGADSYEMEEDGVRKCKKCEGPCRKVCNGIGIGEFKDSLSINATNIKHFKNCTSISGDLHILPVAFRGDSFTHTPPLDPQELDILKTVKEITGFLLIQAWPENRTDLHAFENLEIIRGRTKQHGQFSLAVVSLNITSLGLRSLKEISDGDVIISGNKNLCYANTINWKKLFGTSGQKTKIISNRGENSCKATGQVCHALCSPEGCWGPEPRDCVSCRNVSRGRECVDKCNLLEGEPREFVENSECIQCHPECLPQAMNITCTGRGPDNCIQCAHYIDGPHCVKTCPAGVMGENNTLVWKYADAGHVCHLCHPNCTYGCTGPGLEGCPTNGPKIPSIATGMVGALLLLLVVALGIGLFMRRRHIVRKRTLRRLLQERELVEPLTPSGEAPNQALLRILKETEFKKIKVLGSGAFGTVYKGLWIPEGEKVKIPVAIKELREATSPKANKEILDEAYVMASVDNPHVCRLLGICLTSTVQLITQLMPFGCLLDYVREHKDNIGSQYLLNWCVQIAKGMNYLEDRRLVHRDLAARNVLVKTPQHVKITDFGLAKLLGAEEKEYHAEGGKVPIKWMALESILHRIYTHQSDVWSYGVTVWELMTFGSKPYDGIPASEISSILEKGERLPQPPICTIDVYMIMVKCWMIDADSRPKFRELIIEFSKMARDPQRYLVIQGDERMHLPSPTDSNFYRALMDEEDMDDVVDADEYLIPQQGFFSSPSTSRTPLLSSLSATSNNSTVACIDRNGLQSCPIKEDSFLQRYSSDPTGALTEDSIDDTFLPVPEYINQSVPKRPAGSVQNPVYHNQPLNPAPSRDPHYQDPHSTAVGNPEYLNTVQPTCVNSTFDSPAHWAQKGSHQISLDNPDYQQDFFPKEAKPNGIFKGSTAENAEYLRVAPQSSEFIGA
T4 sequence (P00533 25-1210 T790M/L858R limits assumed): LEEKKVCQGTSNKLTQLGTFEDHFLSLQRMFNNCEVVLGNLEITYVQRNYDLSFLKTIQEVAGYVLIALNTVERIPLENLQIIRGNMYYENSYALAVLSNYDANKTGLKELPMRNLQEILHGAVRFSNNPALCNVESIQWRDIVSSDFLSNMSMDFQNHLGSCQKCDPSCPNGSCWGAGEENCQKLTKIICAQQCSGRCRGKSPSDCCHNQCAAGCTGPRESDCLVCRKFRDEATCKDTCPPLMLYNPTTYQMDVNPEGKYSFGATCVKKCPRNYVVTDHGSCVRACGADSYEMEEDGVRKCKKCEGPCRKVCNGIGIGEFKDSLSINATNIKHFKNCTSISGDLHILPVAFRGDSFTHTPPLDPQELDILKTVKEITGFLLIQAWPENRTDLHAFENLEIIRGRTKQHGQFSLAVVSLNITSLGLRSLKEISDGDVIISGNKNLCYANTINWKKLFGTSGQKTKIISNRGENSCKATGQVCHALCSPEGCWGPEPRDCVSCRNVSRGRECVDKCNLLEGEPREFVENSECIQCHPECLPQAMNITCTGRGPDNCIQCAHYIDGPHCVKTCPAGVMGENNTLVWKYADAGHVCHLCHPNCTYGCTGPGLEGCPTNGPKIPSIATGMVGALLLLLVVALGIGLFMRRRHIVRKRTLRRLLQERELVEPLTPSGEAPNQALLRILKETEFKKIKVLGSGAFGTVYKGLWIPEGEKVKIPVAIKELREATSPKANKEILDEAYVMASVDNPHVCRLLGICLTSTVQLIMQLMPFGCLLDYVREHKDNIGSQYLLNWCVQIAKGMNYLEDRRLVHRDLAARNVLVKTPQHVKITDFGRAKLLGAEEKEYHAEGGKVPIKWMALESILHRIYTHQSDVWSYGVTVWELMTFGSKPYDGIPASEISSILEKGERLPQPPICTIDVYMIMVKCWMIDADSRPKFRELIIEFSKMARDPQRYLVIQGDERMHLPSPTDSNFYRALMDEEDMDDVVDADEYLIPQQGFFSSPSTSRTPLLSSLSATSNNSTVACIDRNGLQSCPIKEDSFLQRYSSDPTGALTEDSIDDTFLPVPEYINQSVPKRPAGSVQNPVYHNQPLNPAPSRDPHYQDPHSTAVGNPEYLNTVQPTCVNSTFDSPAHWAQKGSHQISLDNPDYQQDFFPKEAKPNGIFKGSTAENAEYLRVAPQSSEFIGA
T2 sequence (Q02750 whole entry): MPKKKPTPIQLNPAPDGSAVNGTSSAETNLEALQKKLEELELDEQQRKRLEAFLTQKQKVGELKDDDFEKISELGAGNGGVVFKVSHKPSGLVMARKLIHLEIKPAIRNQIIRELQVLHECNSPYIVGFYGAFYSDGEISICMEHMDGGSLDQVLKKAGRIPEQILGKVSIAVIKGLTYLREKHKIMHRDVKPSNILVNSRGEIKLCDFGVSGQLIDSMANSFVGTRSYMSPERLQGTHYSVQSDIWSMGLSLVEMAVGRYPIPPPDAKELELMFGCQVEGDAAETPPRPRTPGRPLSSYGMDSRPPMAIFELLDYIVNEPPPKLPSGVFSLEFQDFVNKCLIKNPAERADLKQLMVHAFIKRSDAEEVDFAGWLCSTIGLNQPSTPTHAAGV
Tyrosine-protein kinase BTK, sequence (Q06187 whole entry, the tested form may be a part): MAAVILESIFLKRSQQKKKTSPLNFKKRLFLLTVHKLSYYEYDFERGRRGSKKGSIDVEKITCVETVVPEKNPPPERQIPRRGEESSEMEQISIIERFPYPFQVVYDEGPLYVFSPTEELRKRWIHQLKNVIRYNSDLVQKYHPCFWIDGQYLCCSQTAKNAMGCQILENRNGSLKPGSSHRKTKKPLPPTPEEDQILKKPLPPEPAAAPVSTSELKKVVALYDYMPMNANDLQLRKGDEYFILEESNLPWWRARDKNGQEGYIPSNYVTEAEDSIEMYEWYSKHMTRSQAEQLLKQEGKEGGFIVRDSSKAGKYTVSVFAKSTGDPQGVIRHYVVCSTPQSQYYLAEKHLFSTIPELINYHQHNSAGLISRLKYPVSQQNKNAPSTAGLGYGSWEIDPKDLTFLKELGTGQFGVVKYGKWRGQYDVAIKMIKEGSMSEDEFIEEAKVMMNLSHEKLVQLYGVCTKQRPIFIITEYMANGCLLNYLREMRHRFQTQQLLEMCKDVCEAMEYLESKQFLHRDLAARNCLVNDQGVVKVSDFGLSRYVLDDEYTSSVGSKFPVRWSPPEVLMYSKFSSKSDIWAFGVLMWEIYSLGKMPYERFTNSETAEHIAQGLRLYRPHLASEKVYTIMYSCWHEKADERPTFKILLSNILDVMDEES
Serine/threonine-protein kinase 10 (Homo sapiens), sequence (O94804 whole entry, looked up): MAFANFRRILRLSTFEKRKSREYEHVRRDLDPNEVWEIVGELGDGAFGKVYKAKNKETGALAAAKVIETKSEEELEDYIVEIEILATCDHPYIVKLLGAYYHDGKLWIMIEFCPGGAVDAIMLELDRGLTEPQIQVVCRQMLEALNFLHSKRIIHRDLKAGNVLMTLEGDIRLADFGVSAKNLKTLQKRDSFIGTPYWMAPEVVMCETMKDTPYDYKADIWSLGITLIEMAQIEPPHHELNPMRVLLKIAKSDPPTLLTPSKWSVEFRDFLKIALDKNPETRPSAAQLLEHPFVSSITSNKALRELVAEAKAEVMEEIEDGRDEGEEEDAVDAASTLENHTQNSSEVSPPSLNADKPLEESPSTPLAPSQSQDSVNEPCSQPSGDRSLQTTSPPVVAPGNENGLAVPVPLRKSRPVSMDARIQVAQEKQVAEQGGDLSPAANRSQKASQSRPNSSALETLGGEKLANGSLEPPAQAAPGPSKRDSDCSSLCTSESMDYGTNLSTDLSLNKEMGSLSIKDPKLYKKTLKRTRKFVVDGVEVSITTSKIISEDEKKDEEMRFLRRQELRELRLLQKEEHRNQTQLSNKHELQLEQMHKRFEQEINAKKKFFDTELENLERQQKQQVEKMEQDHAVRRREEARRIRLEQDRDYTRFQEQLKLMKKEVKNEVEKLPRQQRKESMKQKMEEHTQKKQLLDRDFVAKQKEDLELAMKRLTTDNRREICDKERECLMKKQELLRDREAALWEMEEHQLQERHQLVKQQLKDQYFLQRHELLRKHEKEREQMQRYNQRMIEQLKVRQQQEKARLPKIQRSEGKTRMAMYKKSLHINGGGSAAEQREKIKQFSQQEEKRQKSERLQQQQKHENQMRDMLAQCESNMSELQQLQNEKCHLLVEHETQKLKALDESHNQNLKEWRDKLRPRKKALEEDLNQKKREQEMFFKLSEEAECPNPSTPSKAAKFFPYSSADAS
Cytoplasmic tyrosine-protein kinase BMX, sequence (P51813 whole entry): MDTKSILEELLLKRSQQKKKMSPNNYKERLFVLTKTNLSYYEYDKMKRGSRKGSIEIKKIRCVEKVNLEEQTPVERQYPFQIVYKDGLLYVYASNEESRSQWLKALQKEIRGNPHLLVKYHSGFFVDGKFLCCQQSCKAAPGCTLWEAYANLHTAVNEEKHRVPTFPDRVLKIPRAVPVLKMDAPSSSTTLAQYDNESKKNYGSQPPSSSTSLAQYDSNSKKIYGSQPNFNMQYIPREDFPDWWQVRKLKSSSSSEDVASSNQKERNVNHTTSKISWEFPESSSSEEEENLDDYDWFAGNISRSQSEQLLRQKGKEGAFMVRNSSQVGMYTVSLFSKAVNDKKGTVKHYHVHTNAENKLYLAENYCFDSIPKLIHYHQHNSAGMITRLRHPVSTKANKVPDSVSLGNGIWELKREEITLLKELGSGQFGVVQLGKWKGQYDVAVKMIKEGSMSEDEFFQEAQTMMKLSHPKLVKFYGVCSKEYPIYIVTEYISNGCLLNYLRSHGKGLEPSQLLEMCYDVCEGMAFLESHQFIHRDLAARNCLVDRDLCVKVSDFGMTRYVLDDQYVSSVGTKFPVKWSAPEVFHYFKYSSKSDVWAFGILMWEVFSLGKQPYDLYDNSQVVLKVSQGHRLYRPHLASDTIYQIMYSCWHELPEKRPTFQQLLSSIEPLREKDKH

With C=CC(=O)N1CCC[C@@H](n2nc(-c3ccc(OCc4ccccn4)c(Cl)c3)c3c(N)ncnc32)C1 the IC50 [1] was 0.111 µM, the “inhibition (INH)” value [2] was “Not Active” and the AUC (Rattus norvegicus [3]) was 405 ng·h/mL. For the same compound, the Activity [4] was 0.4%, the AUCt (Rattus norvegicus [5]) was 404 to 2340 ng/mL/h and the “inhibition (INH)” value [6] was “Active”. The “inhibition (INH)” value [7] was “Not Active”, the “inhibition (INH)” value [8] was “Not Active” and the IC50 [9] was 0.0081 µM. The “inhibition (INH)” value [10] was “Not Active”, the EC50 [11] was less than 0.01 µM and the IC50 [12] was 0.161 µM. The IC50 [13] was 0.0081 µM, the “inhibition (INH)” value [14] was “Active” and the “inhibition (INH)” value [15] was “Not Active”. For the same compound, the IC50 [16] was 0.0083 µM, the GI50 [17] was 3.5 µM and the Activity [18] was 0.1%. The GI50 [19] was 2 µM, the Activity [20] was 0.9% and the “inhibition (INH)” value [21] was “Not Active”. It also gave an AUC (Rattus norvegicus [22]) of 441 ng·h/mL, an EC50 [23] of 0.007 µM and an Activity [24] of 0.95%. The Tmax [25] was 0.58 h, the “inhibition (INH)” value [26] was “Not Active” and the bioavailability [27] was 10.3%. For the same compound, the half-life [28] was 1.95 h, the “inhibition (INH)” value [29] was “Not Active” and the EC50 [30] was less than 0.01 µM. It also gave an EC50 [31] of less than 0.01 µM, a GI50 [32] greater than 10 µM and an IC50 [33] of 0.0245 µM. The Activity [34] was 0.7%, the GI50 [35] was greater than 10 µM and the CL/F [36] was 406 mL/min/kg.
